{"source": "patent US9642829B2", "about": "“Antifungal compound and uses thereof” (The University of Hong Kong, priority 2012, dated 2017)", "key": {"resistant isolate T-1549": {"tested_on": "resistant isolate T-1549", "assay": "Antifungal activity compared with caspofungin and amphotericin B (FIG. 2, CLSI M44-A disc diffusion)", "format": "cell-based, C. guilliermondii", "settings": "resistant isolate T-1549 (FIG. 2C)", "from_the_text": "Oral Biosciences laboratory has one of the largest collections of fungal isolates, particular that of Candida species in the world. In our previous studies, we have found multidrug resistant clinical isolates of Candida species against existing antifungals. In particular, some of these strains are resistant to best antifungal agents to date such as caspofungin, amphotericin B and fluconazole. Therefore, we performed antifungal susceptibility testing for SM21 against these drug resistant Candida isolates suing CLSI M27A brothmicrodultion assay and CLSI M44-A disc diffusion assay."}, "C. albicans biofilms": {"tested_on": "C. albicans biofilms", "assay": "Mono species Candida biofilm MIC, XTT assay", "format": "cell-based, Candida albicans", "description": "(§1) For instance, we have previously shown the resistance of Candida biofilms against amphotericin and caspofungin. Therefore, next using standard biofilm assays we have established in our laboratory, we examined the effect of SM21 against Candida biofilms. In brief, Candida cells were grown in SDA medium at 37° C. for 18 h. Then a loopful of the yeast was inoculated into the yeast nitrogen base (YNB; Difco) medium supplemented with 50 mM glucose in a rotary shaker at 75 rpm. After overnight broth culture, the yeasts were harvested in the late exponential growth phase and washed twice with 20 ml of phosphate buffer saline (PBS; pH 7.2. 0.1 M) prior to use in the biofilm studies. Candida biofilms were developed according to a previously published protocol. In brief, washed yeast cells were resuspended in YNB supplemented with 100 mM glucose and adjusted to an optical density of 0.38 at 520 nm (1×10^7 cells/ml). The standard cell suspension was used immediately to develop biofilms on commercially available presterilized, polystyrene, 96-well plate (IWAKI, Tokyo, Japan). At first, 100 μl of standardized cell suspension (1×10^7 cells/ml) was pipetted into each well of a microtiter plate and incubated for 1.5 h at 37° C. in a shaker at 75 rpm to permit yeast adherence to the well surface (adherence phase). For controls, a well of each microtiter plate was handled in an identical fashion except that no Candida suspension was added. Following the adhesion phase, the cell suspensions were aspirated, and each well washed with 100 μl of PBS to remove loosely adherent cells. 200 μl of YNB with 100 mM glucose were then pipetted into each of the washed wells and the plates incubated at 37° C. in a shaker at 75 rpm for 24 or 48 h. After biofilm growth phase microscopic examination of the cultures were performed to rule out contamination. Then, the suspending medium was aspirated and biofilms were washed with 100 μl PBS to remove the nonadherent cells. The stock solutions were diluted twofold with RPMI 1640 supplemented with 2% glucose to obtain SM21 concentration from 100 to 0.2 μg/ml drug concentrations. In parallel, other antifungal agents such as caspofungin (100 to 0.1 μg/ml) and amphotericin B (240 μg/ml to 0.225 μg/ml) was also prepared as describe above. A total of 100 μl of drug solution was added to the microtiter plate containing Candida biofilms. Biofilms were then incubated at 37° C. for 24 h with the antifungals and afterwards metabolic activity of fungal cells was determined by the XTT [2,3-bis(2-methoxy-4-nitro-5-sulfophenyl)-2H-tetrazolium-5-carboxanilide sodium salt] assay (17, 28). Candida biofilm MIC90 was defined as the lowest drug concentration with 90% reduction in opacity compared with the drug free control. Each experiment was repeated three times with four replicates."}, "C. glabrata biofilms": {"tested_on": "C. glabrata biofilms", "assay": "Mono species Candida biofilm MIC, XTT assay", "format": "cell-based", "settings": "48 h C. glabrata biofilms", "description": "as §1"}, "C. krusei biofilms": {"tested_on": "C. krusei biofilms", "assay": "Mono species Candida biofilm MIC, XTT assay", "format": "cell-based", "settings": "48 h C. krusei biofilms", "description": "as §1"}, "[1]": {"tested_on": "Candida albicans invasion of human oral keratinocytes", "assay": "Candida-human oral keratinocytes co-culture model", "format": "cell-based", "settings": "1×10^4 cells/ml C. albicans with human oral keratinocytes, 24-h incubation", "description": "We also examined the ability of SM21 to inhibit invasion of Candida albicans in Candida-human oral keratinocytes co-culture model. Primary human oral keratinocytes (ScienCell Research Laboratories™, Carlsbad, Calif., USA) at passage two were cultured using Defined Keratinocyte-Serum Free Medium (Gibco, Grand Island, N.Y., USA) which contained 0.2% Defined Keratinocyte-SFM Growth Supplement (Gibco) and 1% penicillin/streptomycin solution. Cells were incubated at 37° C. in a humidified atmosphere with 5% CO2 and 95% air. Yeast cells for inoculation were cultured for 24 h at 37° C. on Sabouraud dextrose agar (Difco, Hampshire, England). A sample of the culture was washed thrice in PBS and an inoculum of approximately 2×10^5 cells was suspended in 10 ml of YPG medium (1% yeast extract, 2% peptone and 2% glucose; Difco, Detroit, Mich.). The suspension was cultured for 18 h at 37° C. with orbital shaking and the cells were harvested, washed in 0.9% NaCl and a sample of cells was resuspended in fresh medium in a shaker for 24 h at 37° C. Afterwards the cells were harvested by centrifuge and the inocula were prepared in phosphate buffered saline (PBS, pH 7.2). Human oral keratinocytes were grown to 80-90% confluence in u-Slide 8-well plates (ibidi GmbH Integrated BioDiagnostics, Martinsried, Germany). […]"}, "C. albicans": {"tested_on": "C. albicans", "assay": "Systemic candidiasis mouse model", "format": "in vivo", "settings": "i.v. C. albicans 1×10^6 cells/mL, 100 μl; 2 μg SM21 from 3 h post-infection, twice a day for five days", "description": "As a pilot study, we used systemic candidiasis mouse models we have established in our laboratory to evaluate the effect of SM21 against systemic Candida infection. In brief, C. albicans inoculum of 1×10^6 cells/mL was prepared in phosphate buffered saline (PBS) eight mice were infected with 100 μl of the standard inoculum size intravenously via the tail vein. Three hours after post-infection four mice (test group) were given 2 μg of SM21 and other four (control group) were given PBS. SM21 treatment was continued twice a day for five days. By five days all mice in the control group died (FIG. 8). Mice in each test group were sacrificed according to the standard guidelines and their kidney, liver, pancreas, and spleen will be harvested. The fungal burden in the tissues will be assessed according to a standard protocol. In brief, part of the excised tissues were weighed individually and homogenized in sterile saline. Aliquots of 100 μL from tissue homogenates and their dilutions were plated on Sabouraud's dextrose agar and colonies were counted after 48 h of incubation at 37° C."}}}
{"compound": "CN(C)c1ccc(/C=C/c2cc(C(C)(C)C)[o+]c(C(C)(C)C)c2)cc1.[O-][Cl+3]([O-])([O-])[O-]", "note": "[SM21]", "values": [{"measurement": "Effectiveness against resistant isolate", "setting": "resistant isolate T-1549", "result": "effective"}, {"measurement": "Biofilm MIC90", "setting": "C. albicans biofilms; 24 h C. albicans biofilms, 24 h drug exposure, XTT", "result": 3.2, "unit": "µg/mL"}, {"measurement": "Minimum inhibitory concentration of 48 h Candida biofilms", "setting": "C. albicans biofilms; 48 h C. albicans biofilms", "result": 25, "unit": "µg/mL"}, {"measurement": "Minimum inhibitory concentration of 48 h Candida biofilms", "setting": "C. glabrata biofilms", "result": 25, "unit": "µg/mL"}, {"measurement": "Minimum inhibitory concentration of 48 h Candida biofilms", "setting": "C. krusei biofilms", "result": 25, "unit": "µg/mL"}, {"measurement": "Protection of keratinocytes from C. albicans invasion (LIVE/DEAD, confocal)", "setting": "[1]", "result": "able to prevent the epithelial cell damage"}, {"measurement": "Survival of infected mice", "setting": "C. albicans", "result": "saved all the mice"}]}
